Earlier results in US7645792B2, “Prodrugs of propofol, compositions and uses thereof” (XenoPort, Inc., priority 2004, dated 2010).

Conditions: rats, oral dosing

**Q.** Which “Administered drug undergoing first pass metabolism” value does the source give for `CC(C)c1cccc(C(C)C)c1O` [propofol, 2,6-diisopropylphenol] here?
**A.** approximately 90%
